Assay results taken from patent US10322995B2, “Substituted cyano cycloalkyl penta-2,4-dienes, cyano cycloalkyl pent-2-en-4-ynes, cyano heterocyclyl penta-2,4-dienes and cyano heterocyclyl pent-2-en-4-ynes as active substances against abiotic plant stress” (BAYER CROPSCIENCE AKTIENGESELLSCHAFT, priority 2014, dated 2019).

Columns and labels:
Brassica napus (BRSNS) = assay: In vivo analyses Part A: drought stress, visual damage scoring, efficacy EF (BRSNS); conditions: spray application 250 g/ha, efficacy = reduction in damage intensity
Protocol: (§1) Seeds of monocotyledonous and dicotyledonous crop plants were sown in sandy loam in wood-fibre pots, covered with soil or sand and cultivated in a greenhouse under good growth conditions. The test plants were treated at the early leaf stage (BBCH10-BBCH13). To assure uniform water supply before commencement of stress, the potted plants were supplied with water by dam irrigation prior to substance application. The inventive compounds, formulated in the form of wettable powders (WP), were sprayed onto the green parts of the plants as an aqueous suspension at an equivalent water application rate of 600 I/ha with addition of 0.2% wetting agent (e.g. agrotin). Substance application was followed immediately by stress treatment of the plants. For this purpose, the pots were transferred in plastic inserts in order to prevent them from subsequently drying out too quickly. Drought stress was induced by gradual drying out under the following conditions: “Day”: 14 hours with illumination at 26° C. “Night”: 10 hours without illumination at 18° C. The duration of the respective stress phases was guided mainly by the condition of the stressed control plants. It was ended (by re-irrigating and transfer to a greenhouse with good growth conditions) as soon as irreversible damage was observed on the stressed control plants. The end of the stress phase was followed by an about 4-7-day recovery phase, during which the plants were once again kept under good growth conditions in a greenhouse. The duration of the recovery phase was guided mainly by when the trial plants had attained a state which enabled visual scoring of potential effects, and was therefore variable. Once this juncture was reached, the intensities of damage were scored visually in comparison to untreated, unstressed controls of the same age. The damage intensity was at first assessed in percent. […]

[1] = test system: Triticum aestivum (TRZAS); assay: In vivo analyses Part A: drought stress, visual damage scoring, efficacy EF (TRZAS); conditions: spray application 25 g/ha, efficacy = reduction in damage intensity
Protocol: as §1

Zea mays (ZEAMX) = assay: In vivo analyses Part A: drought stress, visual damage scoring, efficacy EF (ZEAMX); conditions: spray application 25 g/ha, efficacy = reduction in damage intensity
Protocol: Seeds of monocotyledonous and dicotyledonous crop plants were sown in sandy loam in wood-fibre pots, covered with soil or sand and cultivated in a greenhouse under good growth conditions. The test plants were treated at the early leaf stage (BBCH10-BBCH13). To assure uniform water supply before commencement of stress, the potted plants were supplied with water by dam irrigation prior to substance application. The inventive compounds, formulated in the form of wettable powders (WP), were sprayed onto the green parts of the plants as an aqueous suspension at an equivalent water application rate of 600 I/ha with addition of 0.2% wetting agent (e.g. agrotin). Substance application was followed immediately by stress treatment of the plants. For this purpose, the pots were transferred in plastic inserts in order to prevent them from subsequently drying out too quickly. Drought stress was induced by gradual drying out under the following conditions: “Day”: 14 hours with illumination at 26° C. “Night”: 10 hours without illumination at 18° C. The duration of the respective stress phases was guided mainly by the condition of the stressed control plants. […] Once this juncture was reached, the intensities of damage were scored visually in comparison to untreated, unstressed controls of the same age. The damage intensity was at first assessed in percent. […]

CCOC(=O)/C=C(/C)C#CC(O)(c1ccccc1)C1(C#N)CC1 (stereo not drawn) [I.1-236, Ethyl (2Z)-6-(1-cyanocyclopropyl)-6-hydroxy-3-methyl-6-phenylhex-2-en-4-ynoate]
>5%: EF [%] (BRSNS) (Brassica napus (BRSNS)) | EF [%] (TRZAS) [1] | EF [%] (ZEAMX) (Zea mays (ZEAMX))
